Measurements reported in patent US20220339135A1, “COMPOSITIONS AND METHODS FOR MODULATING AN INFLAMMATORY RESPONSE” (Enzychem Lifesciences Corporation, priority 2019, published 2022).

Assays:
[1] = system: P2Y6 receptor on THP-1 cells; assay: MSU-induced P2Y6 receptor trafficking; type: cell-based, human
Protocol: THP-1 cells were divided into two groups: 1) MSU treated group and 2) MSU/PLAG treated group. For MSU treated group, THP-1 cells were stimulated with monosodium urate (MSU) crystal (400 μg/ml) for 0, 10, 20, 30, 40, 50, 60 minutes. For MSU/PLAG treated group, THP-1 cells were pre-incubated with PLAG (100 μg/ml) for an hour and then stimulated with monosodium urate (MSU) crystal (400 μg/ml) for 0, 10, 20, 30, 40, 50, 60 minutes. Then, cells were harvested. (A) To detect for the P2Y6 receptor on the membrane surface, cells were fixed with 4% paraformaldehyde (Sigma-Aldrich) and incubated with PBS containing 1% BSA for blocking. They were labeled with the rabbit anti-P2Y6 receptor antibody (1:200, APR-011, Alomone Labs, Jerusalem, Israel) for 1 h. The detection Ab was used with Alexa Flour 488 goat anti-rabbit IgG (Invitrogen). (B) To detect lysosomal activity, THP-1 cells were stained with Texas red conjugated-LYSO-ID® Lysosomal Detection Kit (Enzo Life Sciences, Inc.). Finally, cells were washed with 1% FBS/PBS and mounted with DAPI-containing fluorescence microscopy mounting medium (Invitrogen). Confocal samples were analyzed with a laser scanning confocal microscope (Carl Zeiss, Oberkochen, Germany). For flow cytometric analysis, cells were washed and analyzed with a FACSVerse flow cytometer (BD Biosciences). FlowJo software (Tree Star, OR, USA) was used data processing.
The specific siRNA of CD36 (sc-29995) and control siRNA (sc-37007) were purchased from Santa Cruz Biotechnology. Cells were transfected with 50 nM of either the targeting or control siRNA using HiPerFect Transfection Reagent (Qiagen, Hilden, Germany) for 24 h. The knockdown efficiency of siRNAs was confirmed by Western blot analysis.
THP-1 cells were pre-incubated with PLAG (100 μg/ml) for 1 hour and then stimulated with MSU crystal (400 μg/ml). After 15, 30, 60 min, cells were harvested. […] For flow cytometric analysis, cells were washed with 1% FBS/PBS and analyzed with a FACSVerse flow cytometer (BD Biosciences). […]

[2] = system: chemotherapy-induced neutropenia; assay: Chemotherapy-induced neutropenia in pancreatic cancer patients; type: in vivo, human
Description: From January 2014 to September 2014, 16 patients with histologically or cytologically confirmed unresectable pancreatic cancer were enrolled in this study. […] Historical controls were also recruited from Asan Medical Center from March 2012 to December 2013. The eligibility criteria for the control group were the same as those for cases who intake PLAG during gemcitabine-based chemotherapy. The control group (n=32) was matched to the PLAG group (n=16) based on age, performance status, chemotherapy cycle, comorbidity, and disease extent. This study was approved by a hospital institutional review board.
All patients received gemcitabine 1,000 mg/m^2 on days 1, 8, and 15 of each 4-week schedule and daily erlotinib at 100 mg orally. In the PLAG group, PLAG 500 mg was orally administered twice daily from the start of the chemotherapy to the completion. Hematology and serum chemistry analyses were performed at screening baseline, then weekly until the end of the study. Febrile neutropenia (FN) was defined as an ANC of less than 1,000/mm^3 and an oral temperature of more than 38° C. on the same day or the following day after chemotherapy. If on the day of chemotherapy administration, a patient's ANC was reduced to 500-1,000/mm^3 or if the absolute platelet count was reduced to 50,000-100,000/mm^3, the gemcitabine dose was reduced by 75%. Gemcitabine was omitted for 1 week if the neutrophil count was lower than 500/mm^3, or the absolute platelet count was lower than 50,000/mm^3. […] Erlotinib dose was interrupted in patients within tolerable rash and was reduced or discontinued if symptoms persisted for 10-14 days. Erlotinib dose was reduced for grade 2 diarrhea persisting for 48-72 h and for grade 3 diarrhea following resolution to grade 1; erlotinib was permanently discontinued for grade 4 diarrhea. Treatment continued until disease progression unacceptable toxicity, withdrawal of patient's consent or physician's decision. Safety was evaluated throughout the entire study. Toxicity was graded based on the NCI Common Terminology Criteria for Adverse Events (CTCAE) version 3.0.
The primary endpoint was neutropenia, and the secondary endpoint was a safety profile. All analyses were performed using SPSS version 17.0 (SPSS Inc., Chicago, Ill., USA). Descriptive statistics were used to evaluate demographics, and safety data continuous variables were compared using the Mann-Whitney U test, paired t-test, and independent T-test. A P value of <0.05 was considered statistically significant.

[3] = system: chemo-radiation and PAK induced oral mucositis; assay: Chemo-radiation and PAK induced oral mucositis; type: in vivo, mice; details: PLAG 250 mg/kg oral daily, n=19
Protocol: To induce immunocompromised condition in mice of CRIN group and EC-18 group, mice were administered by intraperitoneal injection with 30 mg/kg of 5-FU (Sigma) once a day for 3 days (Sigma) and five days after the experiment initiated, 1Gy of γ-radiation at once. For the EC-18 group, EC-18 (Enzychem Lifesciences, Daejeon, Republic of Korea) was orally given at a dose of 250 mg/kg once a day during the study period. The experimental schedule is described in FIG. 1. On day 6 after the experiment initiated, all the mice of 2 groups (CRIN group, and EC-18 group) were anesthetized with 2% 2, 2, 2,-tribromoethanol by intraperitoneal injection and infected with P. aeruginosa K (PAK) by syringe in the tongue. 1 day after PAK injection, the condition of the tongue and survival rate of mice were monitored and recorded.
P. aeruginosa K was cultured in LB broth or on LB agar plates overnight at 37° C. until they were in log-phase growth. […] The bacterial pellet was suspended to the appropriated number of colony-forming unit (CFU) per milliliter in PBS, as determined by optical density and plating out a serial dilution on broth agar plates. […]
Chemoradiotherapy induced immunocompromised mice were challenged with PAK. […] After the challenge, mice were monitored for 1 day, and the survival rate of mice was recorded.

SMILES: CCCCC/C=C\C/C=C\CCCCCCCC(=O)OC(COC(C)=O)COC(=O)CCCCCCCCCCCCCCC (racemic) [PLAG, 1-palmitoyl-2-linoleoyl-3-acetylglycerol]
- P2Y6 endocytosis initiates ([1]; MSU/PLAG treated cells): about 10 minutes
- P2Y6 returned to the surface ([1]; MSU/PLAG treated cells): about 30 minutes
- promotion of P2Y6 receptor endocytosis (flow cytometry) ([1]; control and CD36 silenced cells): still observed
- incidence of neutropenia (ANC<1,500/mm^3, grade 2-4) ([2]; PLAG 500 mg orally twice daily with gemcitabine + erlotinib, n=16): 37.5%
- ANC nadir (relative to baseline) ([2]; PLAG group): about 0.75
- febrile neutropenia (FN) ([2]; PLAG group): did not occur
- severe neutropenia (ANC<500/mm^3, grade 4) ([2]; PLAG group vs control group): developed only in the control group
- adverse events related to PLAG during chemotherapy ([2]; including nausea/vomiting, bone pain, fatigue, liver dysfunction): no adverse events related to PLAG
- decrease of ANCs from the baseline level ([2]; vs control group, P<0.05): decreased significantly less
- survival rate after 7 days [3]: 84%
